Test results from US20020107283A1, “Carbamate compounds for use in preventing or treating neuropathic pain and cluster and migraine headache-associated pain” (priority 2000, published 2002).

Legend:
[1] = tested on: L5 and L6 spinal nerve ligated rats, mechanical allodynia; experiment: Antiallodynic activity, electronic Von Frey probes, L5 and L6 spinal nerve ligation; type: in vivo, Rj: Wistar (Han) rats
Experimental: Pathogen-free, male Rj: Wistar (Han) rats (300-380 g) were purchased from Elevage Janvier, 53940 Le Genest-Saint-Isle, France. The animals were maintained on a 12-h light/dark cycle (lights on from 7:00-19:00) in a controlled ambient temperature of 21±1° C., and relative humidity maintained at 40-70%. The animals had free access to food (UAR 113) and tap water until tested.
Rats were anesthetized (sodium pentobarbital 40 mg/kg i.p.). A ligature was tied tightly around the left L5 and L6 spinal nerves. The rats received an i.m. injection of 50 000 IU Penicillin (Diamant®) and were allowed to recover. This procedure results in mechanical allodynia in the left hind paw. Two weeks after the surgery, when the allodynic state was fully developed, rats were submitted consecutively to tactile stimulation of both the non-lesioned and the lesioned hindpaws.
The animals were placed on an elevated grid floor in Plexiglass boxes (19×11.5×13 cm). The tip of an electronic Von Frey probe (Bioseb, Model 1610) was then applied with increasing pressure to the lesioned and non-lesioned hindpaws and the force required to induce paw-withdrawal was automatically recorded. Prior to receiving drug treatment all animals were submitted to tactile stimulation and assigned to treatment groups matched on the basis of their pain response. This procedure was carried out 3 times for each paw and the mean paw force was calculated to provide basic scores per animal. Data were expressed as percent change (means ±SEM) of effectiveness from the controls. Statistical analysis was done using non-paired and paired Student's t tests.
As summarized in Table 2 below, an enantiomer of Formula (Ib) substantially free of other enantiomers was evaluated at the doses 10, 30 and 100 mg/kg (n=8), administered p.o. in a volume of 5 mL/kg. Morphine (128 mg/kg) was used as reference substance. Control animals received a p.o. administration of vehicle. The test was performed blind 30, 60 and 90 minutes after drug administration.

[2] = tested on: Chung model of neuropathic pain (L5 spinal nerve ligated rats, mechanical allodynia); experiment: Antiallodynic activity in the Chung model, manually applied von Frey probes; type: in vivo, Sprague-Dawley rats
Source text: The procedure used to test the antiallodynic activity of an enantiomer of Formula (I) substantially free of other enantiomers was the procedure for the measurement of allodynia found in the Chung Model (Kim S. H. and Chung J. M., An Experimental Model for Peripheral Neuropathy Produced by Segmental Spinal Nerve Ligation in the Rat, Pain, 1992, 50, 355-363).
Pathogen-free, male albino Sprague-Dawley rats, 200 g, were purchased from Harlan Industries (Indianapolis, Ind.) and maintained on a 12-h light/dark cycle (lights on at 06:00 h) in a climate-controlled room with food and water available ad libitum up to the time of the testing and food withdrawn 18 hr prior to testing.
The rats were anesthetized with isoflurane inhalant anesthesia. The left lumbar spinal nerve at the level of L5 was tightly ligated (4-0 silk suture) distal to the dorsal root ganglion and prior to entrance into the sciatic nerve, as described by Kim and Chung. The incisions were closed and the rats were allowed to recover under conditions described above. This procedure results in mechanical allodynia in the left hind paw. The sham operation, when performed, consisted of a similar surgical procedure lacking only the final ligation of the spinal nerve. Mechanical (tactile) allodynia was assessed by recording the pressure at which the affected paw (ipsilateral to the site of nerve injury) was withdrawn from graded stimuli (von Frey filaments ranging from 4.0 to 148.1 mN) applied by hand perpendicularly to the plantar surface of the paw (between the footpads) through wire-mesh observation cages. A paw withdrawal threshold (PWT) was determined by sequentially increasing and decreasing the stimulus strength and analyzing withdrawal data using a Dixon non-parametric test, as described by Chaplan et al (Chaplan S. R., Bach F. W., Pogrel J. W., Chung J. M. and Yaksh T. L., Quantitative Assessment of Tactile Allodynia in the Rat Paw, J Neurosci Meth, 1994, 53, 55-63). Normal rats, sham operated rats, and the contralateral paw of L5 ligated rats withstand at least 148.1 mN (equivalent to 15 g) of pressure without responding. Spinal nerve ligated rats respond to as little as 4.0 mN (equivalent to 0.41 g) of pressure on the affected paw. […] The PWT was used to calculate the % maximal possible effect (% MPE) according to the formula:
% MPE=100×(PWT−CT)/(CO−CT).
As summarized in Table 1 below, the enantiomer of Formula (Ib) substantially free of other enantiomers was screened for antiallodynic activity in the Chung model of neuropathic pain at a dose of 30 mg/kg, po, with responses being measured at 0.5, 1, 2 and 4 hr post dosing.

Compound	% Change (paw-withdrawal force from controls) ([1]; 128 mg/Kg morphine, positive control)	% Maximum Possible Effect ([2]; 30 mg/kg, po, paw withdrawal threshold, activity seen at 30 min post-dosing, n=5)	time course of antiallodynic activity ([2]; 30 mg/kg, po, responses measured at 0.5, 1, 2 and 4 hr post dosing)	dose dependence of antiallodynic responses ([2]; about 5 mg/kg, p.o. to about 45 mg/kg, p.o., 30 min)	time of peak antiallodynic effect ([2]; after oral dosing)	maximum % MPE ([2]; highest dose tested (about 45 mg/kg, p.o.), 30 min after oral dosing, N=5)	% Change (paw-withdrawal force from controls) ([1]; 10 mg/kg p.o., ligatured paw, 60 minute measurement, n=8, p ns)	% Change (paw-withdrawal force from controls) ([1]; 30 mg/kg p.o., ligatured paw, 60 minute measurement, n=8, p <0.05)	% Change (paw-withdrawal force from controls) ([1]; 100 mg/kg p.o., ligatured paw, 60 minute measurement, n=8, p <0.05)	effect on the non-ligatured paw ([1]; 10, 30 and 100 mg/kg p.o., 60 minute measurement)	anti-allodynic effect at 90 min post-dosing ([1]; p.o., 90 min post-dosing)
CN1CC[C@]23c4c5ccc(O)c4O[C@H]2[C@@H](O)C=C[C@H]3[C@H]1C5 [morphine, Morphine, reference compound]	38%										
NC(=O)OC[C@@H](O)c1ccccc1Cl [enantiomer of Formula (Ib)]		51%	exhibited antiallodynic activity at 30 min. post-dosing, and responses returned to baseline by one hour	dose-dependent	30 min	60%	65%	80%	72%	without affecting the non-ligatured paw	no longer present by 90 min post-dosing
